From patent publication US20010006969A1, “PYRIMIDINE NUCLEUS-CONTAINING COMPOUND AND A MEDICAMENT CONTAINING THE SAME FOR A BLOOD OXYGEN PARTIAL PRESSURE AMELIORATION, AND A METHOD FOR PREPARING THE SAME” (priority 1997, published 2001)
Structures can show the parent of a compound that is named as a salt.

melting point | SMILES
155 to 158 °C | C=CCNc1nc(NCC=C)c2cc(NC)ccc2n1 (as salt: hydrochloride)
219 to 220 °C | C=CCNc1nc(NC(C)CC)nc2ccc([N+](=O)[O-])cc12 (centres unmarked) (as salt: hydrochloride)
208 to 209 °C | C=CCNc1nc(NC(C)(C)C)c2cc([N+](=O)[O-])ccc2n1 (as salt: hydrochloride)
136 to 138 °C (dec.) | C=CCNc1nc(N(CC=C)CC=C)nc2c(C)csc12 (as salt: hydrochloride)
192 to 194 °C | C=CCNc1nc(NC(=O)NC(C)(C)C)c2scc(C)c2n1 (as salt: hydrochloride)
176 to 177 °C | C=CCNc1nc(NC(C)CC)c2cc([N+](=O)[O-])ccc2n1 (stereo not drawn) (as salt: hydrochloride) [Example 49, 2-Allyiamino-4-(l-methylpropylamino)-6-nitroquinazoline hydrochloride]
164 to 165 °C | C=CCNc1nc(NCCOC)nc2ccc([N+](=O)[O-])cc12 [Example 8, 4-Allylamino-2-(2-methoxyethylamino)-6-nitroquinazoline]
167 to 168 °C | C=CCNc1nc(N(CC=C)CC=C)nc2ccc([N+](=O)[O-])cc12 [Example 9, 4-Allylamino-2-diallylamino-6-nitroquinazoline]
216 to 217 °C | C=CCNc1nc(NCC(C)(C)C)c2cc([N+](=O)[O-])ccc2n1 [Example 11, 2-Allylamino-4-neopentylamino-6-nitroauinazoline]
235 to 236 °C | C=CCNc1nc(NCc2ccccc2)c2cc([N+](=O)[O-])ccc2n1 [Example 12, 2-Allylamino-4-benzylamino-6-nitroquinazoline]
123 to 124 °C | C=CCNc1nc(N2CCCCC2)c2cc([N+](=O)[O-])ccc2n1 [Example 13, 2-Allylamino-6-nitro-4-piperidinoquinazoline]
212 to 215 °C | C=CCNc1nc(NCC=C)c2cc(N)ccc2n1 [Example 14, 2,4-Diallylamino-6-aminoquinazoline]
73 to 74 °C | C=CCNc1nc(N(CC=C)CC=C)nc2ccc(Cl)cc12 [Example 15, 4-Allylamino-2-diallylamino-6-chloroquinazoline]
238 to 239 °C | C=CCNc1nc(NC)nc2ccc([N+](=O)[O-])cc12 [Example 16, 4-Allylamino-2-methylamino-6-nitroquinazoline]
227 to 228 °C | C=CCNc1nc(NCC)nc2ccc([N+](=O)[O-])cc12 [Example 17, 4-Allylamino-2-ethylamino-6-nitroquinazoline]
139 to 140 °C | C=CCNc1nc(NC(C)(C)C)nc2ccc([N+](=O)[O-])cc12 [Example 19, 4-Allylamino-2-t-butylamino-6-nitroquinazoline]
126 to 128 °C | C=CCNc1nc(NCCN)nc2ccc([N+](=O)[O-])cc12 [Example 20, 4-Allylamino-2-(2-aminoethylamino)-6-nitroquinazoline]
206 to 208 °C | C=CCNc1nc(NC/C=C/c2ccccc2)c2cc([N+](=O)[O-])ccc2n1 [Example 23, 2-Allylamino-4-trans-cinnamylamino-6-nitroquinazoline]
214 to 215 °C | C=CCNc1nc(NCCCC)c2cc([N+](=O)[O-])ccc2n1 [Example 24, 2-Allylamino-4-butylamino-6-nitroquinazoline]
192 to 193 °C | C#CCNc1nc(NCC=C)c2cc([N+](=O)[O-])ccc2n1 [Example 29, 4-Allylamino-6-nitro-2-(2-propynylamino)quinazoline]
188 to 189 °C | C=CCNc1nc(NC/C=C/C)nc2ccc([N+](=O)[O-])cc12 [Example 30, 4-Allylamino-2-(trans-2-butenylamino)-6-nitroquinazoline]
173 to 174 °C | C=CCNc1nc(NCCCCCCC)nc2ccc([N+](=O)[O-])cc12 [Example 36, 4-Allylamino-2-heptylamino-6-nitroquinazoline]
221 to 222 °C | C=CCNc1nc(NN2CCCCC2)nc2ccc([N+](=O)[O-])cc12 [Example 37, 4-Allylamino-6-nitro-2-piperidinoaminoquinazoline]
169 to 170 °C | C=CCNc1nc(NCCOCCC)nc2ccc([N+](=O)[O-])cc12 [Example 38, 4-Allylamino-6-nitro-2-(2-propoxyethylamino)quinazoline]

melting point | SMILES
200 to 201 °C | C=CCNc1nc(NC(=O)NC(C)(C)C)c2cc([N+](=O)[O-])ccc2n1 [Example 40, 2-Allylamino-4-(t-butylcarbamoyl)amino-6-nitroquinazoline]
105 to 106 °C | C=CCN(C(=O)NC(C)(C)C)c1nc(NC(=O)NC(C)(C)C)c2cc([N+](=O)[O-])ccc2n1 [Example 41, 2-[N-allyl-N-(t-butylcarbamoyl)amino]-4-(t-butylcarbamoyl)amino-6-nitroquinazoline]
253 to 254 °C | C=CCNc1nc(NC(C)=O)c2cc([N+](=O)[O-])ccc2n1 [Example 42, 4-Acetylamino-2-allylamino-6-nitroquinazoline]
148 to 149 °C | C=CCNc1nc(NC(=O)OCC(C)C)c2cc([N+](=O)[O-])ccc2n1 [Example 43, 2-Allylamino-4-(2-methylpropoxycarbonyl)amino-6-nitroquinazoline]
239 to 240 °C | C=CCNc1nc(NC(C)=O)nc2ccc([N+](=O)[O-])cc12 [Example 44, 2-Acetylamino-4-allylamino-6-nitroquinazoline]
254 to 255 °C | C=CCNc1nc(NC(=O)NCCC)nc2ccc([N+](=O)[O-])cc12 [Example 45, 4-Allylamino-6-nitro-2-(propylcarbamoyl)aminoquinazoline]
145 to 146 °C | C=CCNc1nc(NN(C)C)c2cc([N+](=O)[O-])ccc2n1 [Example 46, 2-Allylamino-4-(2,2-dimethylhydrazino)-6-nitroquinazoline]
154 to 155 °C | C=CCNc1nc(NCCCCCCCCCCCC)c2cc([N+](=O)[O-])ccc2n1 [Example 47, 2-Allylamino-4-dodecylamino-6-nitroquinazoline]
148 to 155 °C | C=CCNc1nc(NCCCCCCCCCCCC)nc2ccc([N+](=O)[O-])cc12 [Example 48, 4-Allylamino-2-dodecylamino-6-nitroquinazoline]
224 to 225 °C | C=CCNc1nc(NC23CC4CC(CC(C4)C2)C3)c2cc([N+](=O)[O-])ccc2n1 [Example 52, 4-(1-Adamantylamino)-2-allylamino-6-nitroquinazoline]
178 to 179 °C | C=CCNc1nc(NCCC(=O)N2CCCCC2)nc2ccc([N+](=O)[O-])cc12 [Example 53, 4-Allylamino-6-nitro-2-[2-(piperidinocarbonyl)ethylamino] quinazoline]
202 to 203 °C | C=CCNc1nc(NCc2ccccn2)nc2ccc([N+](=O)[O-])cc12 [Example 54, 4-Allylamino-6-nitro-2-(2-pyridylmethylamino)quinazoline]
215 to 216 °C | C=CCNc1nc(NCC(F)(F)F)c2cc([N+](=O)[O-])ccc2n1 [Example 55, 2-Allylamino-4-(2,2,2-trifluoroethylamino)-6-nitroquinazoline]
221 to 222 °C | C=CCNc1nc(NCC(F)(F)F)nc2ccc([N+](=O)[O-])cc12 [Example 56, 4-Allylamino-2-(2,2,2-trifluoroethylamino)-6-nitroquinazoline]
194 to 195 °C | C=CCNc1nc(NCC=C(C)C)nc2ccc([N+](=O)[O-])cc12 [Example 58, 4-Allylamino-2-(3-methyl-2-butenylamino)-6-nitroquinazoline]
209 to 210 °C | C=CCNc1nc(NCC=C(C)C)c2cc([N+](=O)[O-])ccc2n1 [Example 59, 2-Allylamino-4-(3-methyl-2-butenylamino)-6-nitroquinazoline]
168 to 172 °C | CC(C)=CCNc1nc(NCC=C(C)C)c2cc([N+](=O)[O-])ccc2n1 [Example 61, 2,4-Bis(3-methyl-2-butenylamino)-6-nitroquinazoline]
156 to 158 °C | C=CC(C)Nc1nc(NCCCC)nc2ccc([N+](=O)[O-])cc12 (centres unmarked) [Example 62, 2-Butylamino-4-(1-methyl-2-propenylamino)-6-nitroquinazoline]
172 to 173 °C | C=CCNc1nc(NC(C)C=C)c2cc([N+](=O)[O-])ccc2n1 (centres unmarked) [Example 63, 2-Allylamino-4-(1-methyl-2-propenylamino)-6-nitroquinazoline]
122 to 125 °C | C=CC(C)Nc1nc(NC(C)C=C)c2cc([N+](=O)[O-])ccc2n1 (centres unmarked) [Example 64, 2,4-Bis(1-methyl-2-propenylamino)-6-nitroquinazoline]
123 to 124 °C | C=CCNc1nc(NC(C)C=C)nc2ccc([N+](=O)[O-])cc12 (centres unmarked) [Example 65, 4-Allylamino-2-(1-methyl-2-propenylamino)-6-nitroquinazoline]
90 to 92 °C | C=CCNc1nc(NCC(C)(C)C)c2scc(C)c2n1 [Example 67, 2-Allylamino-7-methyl-4-neopentylaminothieno[3,2-d] pyrimidine]
97 to 98 °C | C=CCNc1nc(NCc2ccccc2)c2scc(C)c2n1 [Example 69, 2-Allylamino-4-benzylamino-7-methylthieno[3,2-d] pyrimidine]

SMILES | melting point
C=CCNc1nc(NCc2ccco2)nc2ccc([N+](=O)[O-])cc12 (as salt: hydrochloride) [Example 33, 4-Allylamino-2-furfurylamino-6-nitroquinazoline hydrochloride] | 217 to 218 °C
C=CCNc1nc(NC2CCCCC2)c2scc(C)c2n1 (as salt: hydrochloride) [Example 70, 2-Allylamino-4-cyclohexylamino-7-methylthieno[3,2-d] pyrimidine hydrochloride] | 140 to 142 °C
C=CCNc1nc(N(CC=C)CC=C)c2scc(C)c2n1 (as salt: hydrochloride) [Example 71, 2-Allylamino-4-diallylamino-7-methylthieno[3,2-d] pyrimidine hydrochloride] | 76 to 78 °C (dec.)
